From patent US10428051B2 (priority 2015, dated 2019) come the findings set out here.

Each structure is given as a SMILES string.

One experiment deals with human σ1 receptor (Homo sapiens, UniProt Q99720). Put plainly: biochemical.
Chain of human σ1 receptor (Q99720 whole entry): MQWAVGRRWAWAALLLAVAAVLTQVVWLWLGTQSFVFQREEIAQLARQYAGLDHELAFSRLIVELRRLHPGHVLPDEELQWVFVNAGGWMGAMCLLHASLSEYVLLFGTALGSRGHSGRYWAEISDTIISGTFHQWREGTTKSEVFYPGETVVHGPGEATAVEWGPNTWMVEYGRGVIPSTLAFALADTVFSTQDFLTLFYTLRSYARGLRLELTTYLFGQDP
Conditions: not given
The class given is binding. Details: μ and σ1 dual (binding to the σ1 receptor and the μ-opioid receptor expressed as Ki): key to the marks not given beside the values.
With `CCC(=O)N(CC1(C2CCN(CC(C)C)CC2)CCOCC1)c1cccc(C(F)(F)F)n1` [Example 178, N-((4-(1-isobutylpiperidin-4-yl)tetrahydro-2H-pyran-4-yl)methyl)-N-(6-(trifluoromethyl)pyridin-2-yl)propionamide], the “μ and σ1 dual (binding to the σ1 receptor and the μ-opioid receptor expressed as Ki)” value (from here on “μ and σ1 dual”) was “++”.
Broadly, the Ki is the equilibrium dissociation constant of an inhibitor or competing ligand from its target. In the case of `CCC(=O)N(CC1(N2CCN(Cc3ccc(C(F)(F)F)nc3)CC2)CCOCC1)c1ccccc1` [Example 103, N-phenyl-N-((4-(4-((6-(trifluoromethyl)pyridin-3-yl)methyl)piperazin-1-yl)tetrahydro-2H-pyran-4-yl)methyl)propionamide], the Ki is above 0.5 µM.
With `CCC(=O)N(CC1(N2CCN(Cc3cccnc3)CC2)CCOCC1)c1ccccc1` [Example 101, N-phenyl-N-((4-(4-(pyridin-3-ylmethyl)piperazin-1-yl)tetrahydro-2H-pyran-4-yl)methyl)propionamide], the Ki is below 0.5 µM.
`CCC(=O)N(CC1(N2CCN(Cc3ccccc3)CC2)CCOCC1)C(C)c1ccccc1` (stereo not shown) [Example 13, N-((4-(4-benzylpiperazin-1-yl)tetrahydro-2H-pyran-4-yl)methyl)-N-(1-phenylethyl)propionamide] returned a Ki below 0.1 µM.
Same read-out and setting: next, `CCC(=O)N(CC1(N2CCN(Cc3ccc(F)cc3)CC2)CCOCC1)c1ccccn1` [Example 111, N-((4-(4-(4-fluorobenzyl)piperazin-1-yl)tetrahydro-2H-pyran-4-yl)methyl)-N-(pyridin-2-yl)propionamide]: below 0.5 µM.
As for `CCC(=O)N(CC1(N2CCN(Cc3ccccc3)CC2)CCOC(C)(C)C1)c1ncccc1C#N` (stereo not shown) [Example 68, N-((4-(4-benzylpiperazin-1-yl)-2,2-dimethyltetrahydro-2H-pyran-4-yl)methyl)-N-(3-cyanopyridin-2-yl)propionamide], the “μ and σ1 dual” value is “++”.
With `CCC(=O)N(CC1(N2CCN(C(C)c3ccc(F)cc3)CC2)CCOCC1)c1cccc(C(F)(F)F)n1` (stereo not shown) [Example 182, N-((4-(4-(1-(4-fluorophenyl)ethyl)piperazin-1-yl)tetrahydro-2H-pyran-4-yl)methyl)-N-(6-(trifluoromethyl)pyridin-2-yl)propionamide], the Ki was below 0.5 µM.
On the same count and under the same terms, next, `CCC(=O)N(CC1(N2CCN(Cc3ccccc3)CC2)CCOCC1)c1ccccc1OC` [Example 3, N-((4-(4-benzylpiperazin-1-yl)tetrahydro-2H-pyran-4-yl)methyl)-N-(2-methoxyphenyl)propionamide]: below 0.1 µM.
On the same count and under the same terms, as for `CCC(=O)N(CC1(N2CCN(CCOC(C)C)CC2)CCOC(C)(C)C1)c1ccccn1` (stereo not shown) [Example 163, N-((4-(4-(2-isopropoxyethyl)piperazin-1-yl)-2,2-dimethyltetrahydro-2H-pyran-4-yl)methyl)-N-(pyridin-2-yl)propionamide], the figure is above 0.5 µM.
Turning to `CCC(=O)N(CC1(N2CCN(CCC(C)C)CC2)CCOC(C)(C)C1)c1ncccc1F` (stereo not shown) [Example 168, N-(3-fluoropyridin-2-yl)-N-((4-(4-isopentylpiperazin-1-yl)-2,2-dimethyltetrahydro-2H-pyran-4-yl)methyl)propionamide], the “μ and σ1 dual” value is reported as “++”.
The compound `CCC(=O)N(CC1(N2CCN(CCc3ccccc3)CC2)CCCCC1)c1ccccn1` [Example 21, N-((1-(4-phenethylpiperazin-1-yl)cyclohexyl)methyl)-N-(pyridin-2-yl)propionamide] returned a Ki below 0.5 µM.
The same measure, in the same setting: as for `COCC(=O)N(CC1(N2CCN(Cc3ccccc3)CC2)CCOCC1)c1ccccc1` [Example 37, N-((4-(4-benzylpiperazin-1-yl)tetrahydro-2H-pyran-4-yl)methyl)-2-methoxy-N-phenylacetamide], the figure is below 0.5 µM.
Still for that read-out and setting: next, `CCC(=O)N(CC1(N2CCN(Cc3ccc(F)c(F)c3)CC2)CCOCC1)c1ccccc1` [Example 108, N-((4-(4-(3,4-difluorobenzyl)piperazin-1-yl)tetrahydro-2H-pyran-4-yl)methyl)-N-phenylpropionamide]: below 0.5 µM; `CCC(=O)N(CC1(N2CCN(CCC(C)C)CC2)CCOCC1)c1cccc(C#N)n1` [Example 86, N-(6-cyanopyridin-2-yl)-N-((4-(4-isopentylpiperazin-1-yl)tetrahydro-2H-pyran-4-yl)methyl)propionamide]: below 0.5 µM.
As for `CCC(=O)N(CC1(N2CCN(Cc3ccc(C(=O)NC)cc3)CC2)CCOCC1)c1ccccc1` [Example 125, N-methyl-4-((4-(4-((N-phenylpropionamido)methyl)tetrahydro-2H-pyran-4-yl)piperazin-1-yl)methyl)benzamide], the “μ and σ1 dual” value is listed as “++”.
`CCC(=O)N(CC1(N2CCN(Cc3ccccc3)CC2)CCOC(C)(C)C1)c1ccccn1` (stereo not shown) [Example 16, N-((4-(4-benzylpiperazin-1-yl)-2,2-dimethyltetrahydro-2H-pyran-4-yl)methyl)-N-(pyridin-2-yl)propionamide] displayed a Ki below 0.5 µM.
Still for that read-out and setting: as for `CCC(=O)N(CC1(N2CCN(CC(C)C)CC2)CCC1)c1cccc(C(F)(F)F)n1` [Example 203, N-((1-(4-isobutylpiperazin-1-yl)cyclobutyl)methyl)-N-(6-(trifluoromethyl)pyridin-2-yl)propionamide], the figure is below 0.5 µM; as for `CCC(=O)N(CC1(N2CCN(Cc3ccccc3)CC2)CC1)c1cnccc1C(F)(F)F` [Example 78, N-((1-(4-benzylpiperazin-1-yl)cyclopropyl)methyl)-N-(4-(trifluoromethyl)pyridin-3-yl)propionamide], below 0.5 µM; as for `CCC(=O)N(CC1(N2CCN(CC(C)C)CC2)CCOC(C)(C)C1)c1ccccn1` (stereo not shown) [Example 166, N-((4-(4-isobutylpiperazin-1-yl)-2,2-dimethyltetrahydro-2H-pyran-4-yl)methyl)-N-(pyridin-2-yl)propionamide], above 0.5 µM.
On the same count and under the same terms, as for `CCC(=O)N(CC1(N2CCN(CCOC3CC3)CC2)CCOCC1)c1cccc(C(F)(F)F)n1` [Example 183, N-((4-(4-(2-cyclopropoxyethyl)piperazin-1-yl)tetrahydro-2H-pyran-4-yl)methyl)-N-(6-(trifluoromethyl)pyridin-2-yl)propionamide], the figure is below 0.5 µM; as for `CCC(=O)N(CC1(N2CCN(CCC(C)C)CC2)CCOCC1)c1ncccc1F` [Example 155, N-(3-fluoropyridin-2-yl)-N-((4-(4-isopentylpiperazin-1-yl)tetrahydro-2H-pyran-4-yl)methyl)propionamide], below 0.5 µM.
Still for that read-out and setting: next, `CCC(=O)N(CC1(N2CCN(CC(C)C)CC2)CCOCC1)c1cccc(C#N)n1` [Example 85, N-(6-cyanopyridin-2-yl)-N-((4-(4-isobutylpiperazin-1-yl)tetrahydro-2H-pyran-4-yl)methyl)propionamide]: above 0.5 µM; `CCC(=O)N(CC1(N2CCN(Cc3ccccc3)CC2)CCOCC1)c1ccncc1` [Example 12, N-((4-(4-benzylpiperazin-1-yl)tetrahydro-2H-pyran-4-yl)methyl)-N-(pyridin-4-yl)propionamide]: above 0.5 µM.
Compound `CCC(=O)N(CC1(N2CCN(Cc3ccc(F)cc3)CC2)CCOCC1)c1ccccc1` [Example 105, N-((4-(4-(4-fluorobenzyl)piperazin-1-yl)tetrahydro-2H-pyran-4-yl)methyl)-N-phenylpropionamide] registered a Ki below 0.1 µM.
With `CCC(=O)N(CC1(N2CCN(Cc3cncc(F)c3)CC2)CCOCC1)c1ccccc1` [Example 107, N-((4-(4-((5-fluoropyridin-3-yl)methyl)piperazin-1-yl)tetrahydro-2H-pyran-4-yl)methyl)-N-phenylpropionamide], the Ki is below 0.5 µM.
For `CCC(=O)N(CC1(N2CCN(CCC(C)C)CC2)CCOCC1)c1ccccn1` [Example 153, N-((4-(4-isopentylpiperazin-1-yl)tetrahydro-2H-pyran-4-yl)methyl)-N-(pyridin-2-yl)propionamide], the “μ and σ1 dual” value was “++”.
Compound `CCC(=O)N(CC1(N2CCN(CCOC(C)C)CC2)CCOC(C)(C)C1)c1cccc(C(F)(F)F)n1` (stereo not shown) [Example 161, N-((4-(4-(2-isopropoxyethyl)piperazin-1-yl)-2,2-dimethyltetrahydro-2H-pyran-4-yl)methyl)-N-(6-(trifluoromethyl)pyridin-2-yl)propionamide] had a Ki below 0.5 µM.
Still for that read-out and setting: next, `CCC(=O)N(CC1(N2CCN(Cc3cccc(F)c3)CC2)CCOCC1)c1ccccn1` [Example 110, N-((4-(4-(3-fluorobenzyl)piperazin-1-yl)tetrahydro-2H-pyran-4-yl)methyl)-N-(pyridin-2-yl)propionamide]: below 0.5 µM; `CCOCCN1CCN(C2(CN(C(=O)CC)c3cccc(C(F)(F)F)n3)CCOC3(CCCC3)C2)CC1` (stereo not shown) [Example 176, N-((9-(4-(2-ethoxyethyl)piperazin-1-yl)-6-oxaspiro[4.5]decan-9-yl)methyl)-N-(6-(trifluoromethyl)pyridin-2-yl)propionamide]: below 0.5 µM.
For `COCC(=O)N(CC1(N2CCN(CC(C)C)CC2)CCOCC1)c1cccc(C(F)(F)F)n1` [Example 39, N-((4-(4-isobutylpiperazin-1-yl)tetrahydro-2H-pyran-4-yl)methyl)-2-methoxy-N-(6-(trifluoromethyl)pyridin-2-yl)acetamide], the “μ and σ1 dual” value is listed as “++”.

Staying with this experiment, now noted: combined class for both Ki-σ1 (assay A1) and Ki-μ (assay A2); human receptors, radioligand binding; read-out: μ and σ1 dual (binding to the σ1 receptor and the μ-opioid receptor expressed as Ki).
As for `CCOc1ccc(N(CC2(N3CCN(Cc4ccccc4)CC3)CCN(C)CC2)C(=O)CC)cc1` [Example 24, N-((4-(4-benzylpiperazin-1-yl)-1-methylpiperidin-4-yl)methyl)-N-(4-ethoxyphenyl)propionamide], the Ki was above 0.5 µM.
